Values joined by “and” are separate entries in the source; they are usually repeats but may differ in a detail not shown here. Equal values may be shown once. Read-outs that look alike come from different tables or passages of the source.
Columns and labels:
[1] = Pharmacokinetic plasma parameters of J147, oral and intravascular administration; format: in vivo, Adult Wister Rats; settings: for FInf: calculated based on AUCInf; for Flast: calculated based on AUClast
Experimental: (§1) Plasma samples obtained during surgery in J147-treated rats and 3 control rats were measured for circulating levels of J147. Results of pharmacokinetic measures of both plasma and brain levels of J147 in rats following oral administration of J147 in basis suspension at 20 mg/kg and also following intravascular administration at 5 mg/kg are shown in Table 2A-C below. When taking the absence of an appropriate peak as zero, mean concentration is 0 ng/ml in controls, 3.103 ng/ml in acutely treated rats and 0.233 ng/ml in chronically treated rats. J147 levels in food were verified as well (467 mg/kg). […] During the first 10 days after surgery and individual housing, rats on the diet ate on average 20±1 g, which was similar to the 20±1 g in surgery with control food and 23±1 g in non-surgery controls, verifying the anticipated intake of 10 mg J147/rat/day and further supporting no preference or aversion for the diet food.

[2] = Brain levels of J147 after oral administration in Basis suspension; format: in vivo, Adult Wister Rats; settings: Wistar, rat, brain homogenate, po, 20 mg/kg, oral 20 mg/kg in Basis suspension, PO_B satellite; 0.25 h; brain homogenate 1:3; Group 1, Group 2; LLOQ 2 ng/g; read-out: Brain Detected Conc.
Experimental: as §1
Tables 2A-2B. Pharmacokinetic Measures of Plasma and Brain Levels of J147 Formulated in Basis Suspension Administered Orally to Adult Wister Rats at 20mg/kg.
• All of the brain samples were added with […] by brain weight (g) to PBS volume (mL) ratio 1:3 for homogenization. • The actual concentration (ng/g) is the detected value (ng/mL) multiplied by 4. • BLOQ: Below limit of quantitation (LLOQ: 2 ng/g) • NA: not available

[3] = IV 5 mg/kg, 1 mg/mL in DMSO/PEG 200/Saline 5/70/25, individual animals (1148, 1154, 1156, 1158), 5 mg/kg
[4] = IV 5 mg/kg, individual animals (1148, 1154, 1156, 1158), 5 mg/kg
[5] = PO_A 20 mg/kg, 7 mg/mL in Basis, individual animals (1142, 1144, 1150, 1166), 20 mg/kg
[6] = PO_A 20 mg/kg, individual animals (1142, 1144, 1150, 1166), 20 mg/kg
[7] = Wistar, rat, plasma, iv, 5 mg/kg, IV 5 mg/kg, Mean of 4 animals
[8] = Wistar, rat, plasma, po, 20 mg/kg, PO_B (oral, Basis), Mean

Tmax [1, 3]: 4.98 min and 15 min
t1/2 [1, 3]: 64.8 min and 57.8 min and 51.1 min
AUC_% Ex Trap ([1]; IV 5 mg/kg, Mean of 4 animals): 1.58%
Cl_obs ([1]; IV 5 mg/kg, Mean of 4 animals): 77.4 mL/min/kg
vss_obs ([1]; IV 5 mg/kg, Mean of 4 animals): 5.18 L/kg
AUC_% Ex Trap [1, 4]: 1.14% and 2.31% and 1.89% and 0.979%
MRT [1, 4]: 55.6 min and 44.1 min and 34.3 min
AUClast ([1]; IV 5 mg/kg, last time point 6 h, Mean of 4 animals): 782 ng·mL·h
t1/2 [1, 5]: 96.6 min and 70.8 min
AUC_% Ex Trap ([1]; PO_A 20 mg/kg, Mean): 7.60%
FInf ([1]; PO_A 20 mg/kg, Mean): 4.29%
FInf [1, 6]: 2.64% and 2.72% and 7.50%
Flast ([1]; PO_A 20 mg/kg, Mean): 3.61%
Flast [1, 6]: 2.45% and 2.23% and 2.51% and 7.25%
AUC_% Ex Trap [1, 6]: 7.91% and 9.72% and 5.17%
AUClast ([1]; PO_A 20 mg/kg, last time point 6 h, Mean): 105 ng·mL·h
AUC_% Ex Trap ([1]; PO_B (oral, Basis), Mean): 15.9%
AUClast ([1]; PO_B (oral, Basis), last time point 4 h, Mean): 64.7 ng·mL·h
half-life ([1]; Wistar, rat, plasma, iv, 5 mg/kg, IV 5 mg/kg, 1 mg/mL in DMSO/PEG 200/Saline 5/70/25, individual animals (1148, 1154, 1156, 1158)): 63.6 min
AUC(0-inf) [1, 7]: 795 ng·h/mL
half-life [1, 7]: 59.2 min
C0 ([1]; Wistar, rat, plasma, iv, 5 mg/kg, IV 5 mg/kg, Mean of 4 animals, read-out: C0): 2290 ng/mL
MRT ([1]; Wistar, rat, plasma, iv, 5 mg/kg, IV 5 mg/kg, Mean of 4 animals, read-out: MRT): 41.7 min
Tmax ([1]; Wistar, rat, plasma, iv, 5 mg/kg, IV 5 mg/kg, Mean of 4 animals, read-out: tmax): 7.5 min
AUC(0-inf) ([1]; Wistar, rat, plasma, iv, 5 mg/kg, IV 5 mg/kg, individual animals (1148, 1154, 1156, 1158)): 924 ng·h/mL
MRT ([1]; Wistar, rat, plasma, iv, 5 mg/kg, IV 5 mg/kg, individual animals (1148, 1154, 1156, 1158), read-out: MRT): 32.8 min
half-life ([1]; Wistar, rat, plasma, po, 20 mg/kg, PO_A 20 mg/kg, 7 mg/mL in Basis, Mean): 84.6 min
Cmax ([1]; Wistar, rat, plasma, po, 20 mg/kg, PO_A 20 mg/kg, 7 mg/mL in Basis, Mean, read-out: Cmax): 43.7 ng/mL
Tmax ([1]; Wistar, rat, plasma, po, 20 mg/kg, PO_A 20 mg/kg, 7 mg/mL in Basis, Mean, read-out: tmax): 52.8 min
half-life ([1]; Wistar, rat, plasma, po, 20 mg/kg, PO_A 20 mg/kg, 7 mg/mL in Basis, individual animals (1142, 1144, 1150, 1166)): 87 min
Tmax ([1]; Wistar, rat, plasma, po, 20 mg/kg, PO_A 20 mg/kg, 7 mg/mL in Basis, individual animals (1142, 1144, 1150, 1166), read-out: tmax): 60 min
AUC(0-inf) ([1]; Wistar, rat, plasma, po, 20 mg/kg, PO_A 20 mg/kg, Mean): 121 ng·h/mL
AUC(0-inf) [1, 8]: 76.9 ng·h/mL
half-life [1, 8]: 85.2 min
Cmax ([1]; Wistar, rat, plasma, po, 20 mg/kg, PO_B (oral, Basis), Mean, read-out: Cmax): 47.4 ng/mL
Tmax ([1]; Wistar, rat, plasma, po, 20 mg/kg, PO_B (oral, Basis), Mean, read-out: tmax): 30 min
concentration at 0.25 h [2]: 0.736 ng/mL
SMILES: COc1cccc(/C=N/N(C(=O)C(F)(F)F)c2ccc(C)cc2C)c1 [J147]
C0 [1, 3]: 4706 ng/mL and 384 ng/mL and 1572 ng/mL and 2509 ng/mL
Cl_obs [1, 3]: 90.2 mL/min/kg and 98.9 mL/min/kg and 107 mL/min/kg
AUCInf [1, 4]: 842 ng·h/mL and 631 ng·h/mL and 781 ng·h/mL
vss_obs [1, 4]: 3.39 L/kg and 6.41 L/kg and 6.82 L/kg and 4.07 L/kg
AUClast ([1]; IV 5 mg/kg, last time point 6 h, individual animals (1148, 1154, 1156, 1158), 5 mg/kg): 913 ng·mL·h and 823 ng·mL·h and 619 ng·mL·h and 774 ng·mL·h
Cmax [1, 5]: 29.0 ng/mL and 39.9 ng/mL and 36.5 ng/mL and 69.2 ng/mL
AUCInf [1, 6]: 82.5 ng·h/mL and 91.5 ng·h/mL and 189 ng·h/mL
AUClast ([1]; PO_A 20 mg/kg, last time point 6 h, individual animals (1142, 1144, 1150, 1166), 20 mg/kg): 76.0 ng·mL·h and 81.6 ng·mL·h and 82.6 ng·mL·h and 180 ng·mL·h

Reference: patent US20220273590A1, “COMPOUNDS FOR PREVENTION AND TREATMENT OF POST-OPERATIVE COGNITIVE DYSFUNCTION” (ABREXA PHARMACEUTICALS, INC., priority 2019, published 2022)
